How the values were obtained:
[1] = system: human cell cultures (mixed islets and ductal tissue cultures); assay: Insulin content by RIA, mixed human islet and ductal cultures (Example 2); format: cell-based; conditions: vs HIP1, HIP, hamster INGAP, saline; FIG. 3
Method: HIP2, HIP1, HIP, controls and progenitor fractions were cultured over 10 days, according to standard protocol. Briefly, pancreata from adult human cadaveric organ donors were obtained through the local organ procurement organization. Islets were isolated according to established protocols described by Bonner-Weir and Jamal. (Bonner-Weir et al. Pediatric Diabetes: 2004; 5 (Suppl 2): 16-22. Jamal et al. Cell Death Differ. 2005 July; 12(7): 702-12). HIP2, HIP1, HIP and INGAP were synthesized by Bachem Bioscience, Malvern, Pa. and were quality tested by HPCL to be greater than 95% pure. Each peptide was provided in lyophilized powder and was resuspended in isotonic saline solution. Stock solutions were made so that only 1-2 ul aliquots were added to primary cell cultures to reach the final concentrations provided below. Stock solutions were frozen and thawed a total of three times for the six day treatment. […]
Pancreata from adult human cadaveric organ donors were obtained through the local organ procurement organization. […] Free islets with diameters ranging from 75 to 400 μm, determined to be greater than 90% pure by staining with dithizone (Sigma) a zinc chelater, were collected and washed. […]
Insulin levels were detected by Radioimmunoassay (RIA) from cultures treated with saline only (s/0), HIP2, HIP1, HIP and hamster INGAP. […]

[2] = Stability of peptide in isotonic saline; format: physicochemical; conditions: 20° C. in isotonic saline
Method: Further, HIP2, may be stably stored for long periods of time.
HIP2, HIP1, HIP, controls and progenitor fractions were cultured over 10 days, according to standard protocol. Briefly, pancreata from adult human cadaveric organ donors were obtained through the local organ procurement organization. Islets were isolated according to established protocols described by Bonner-Weir and Jamal. (Bonner-Weir et al. Pediatric Diabetes: 2004; 5 (Suppl 2): 16-22. Jamal et al. Cell Death Differ. 2005 July; 12(7): 702-12). HIP2, HIP1, HIP and INGAP were synthesized by Bachem Bioscience, Malvern, Pa. and were quality tested by HPCL to be greater than 95% pure. Each peptide was provided in lyophilized powder and was resuspended in isotonic saline solution. Stock solutions were made so that only 1-2 ul aliquots were added to primary cell cultures to reach the final concentrations provided below. […] HPLC data confirmed that the peptides remained stable in the isotonic saline after the freeze/thaw cycles.

[3] = system: human pancreatic progenitor cells; assay: Inverted microscopy of human ductal/progenitor tissue cultures (Example 4); format: cell-based

Q: With “HIP2: Human proIslet Peptide, fragment of human REG3A, in purified, synthetic, or recombinant form (SEQ ID NO:4) (IGLHDPTQGTEPNG; Fragment of naturally occurring human REG3 protein)” as the substance, how does the “increased bioactivity over the other agents used (insulin, RIA)” value [1] read?
A: Its value is 1.50-3.33 fold.

Q: What about the storage stability [2] of the same substance?
A: The storage stability was “stable for months”.

Q: And the “morphology of ductal tissue culture fraction (FIG. 4)” value ([3]; after treatment, just before lysis and RIA)?
A: Its value is “Morphological changes show islet like structure”.

Q: What about the “morphology of progenitor tissue cultures (FIG. 7A)” value ([3]; day 2 of treatment (day 12)) of the same substance?
A: The value was “starting to bud at one end where a progenitor cell resides”.

Q: What about the “morphology of progenitor tissue cultures (FIG. 7B)” value ([3]; day 6 of treatment (day 18)) of the same substance?
A: Its value is “darkening of the budding portion of the ductal epithelial cyst indicates the differentiation of cells”.

Q: What about the “islet structure formation (micrograph, FIG. 4A)” value ([3]; pancreatic ductal tissue fraction culture, six days of culture with peptide) of the same substance?
A: Its value is “New islet structure has formed”.

— patent US8785400B2, “Methods and compositions relating to islet cell neogenesis” (CureDM Group Holdings, LLC, priority 2006, dated 2014)
